Reference: patent US20250091994A1, “RAS/RAF BINDING INHIBITOR COMPOUND” (NATIONAL UNIVERSITY CORPORATION KOBE UNIVERSITY, priority 2021, published 2025)
Where two headings read alike, the source gives them in different places. Values belong to the compound of their own block, whether it stands above or below them.

What was measured:
[1] = biological target: GTPγS-bound human HRasG12V / human c-Raf-1 Ras binding domain (RBD) (Homo sapiens (Human), UniProt P01112, G12V); assay: Ras-Raf binding inhibition ELISA
Description: The in vitro Ras-Raf binding inhibitory activity of the compound of the present invention was evaluated by an ELISA method (Enzyme-Linked ImmunoSorbent Assay) described below.
Ras and Raf used upon the evaluation were purified and activated by the following method.
Using a pGEX6P-1 vector (GE Healthcare), human HRasG12V (full length, 1-189 amino acid residues) and human c-Raf-1 Ras binding domain (RBD) (50-131 amino acid residues) were each allowed to express as a fusion body with glutathione S-transferase (GST) in E. coli.
GST-HRasG12V-expressing cells were subjected to ultrasonication in a buffer {50 mM Tris-HCl pH 7.4, 150 mM NaCl, 5 mM MgCl2, 1 mM ethylenediaminetetraacetic acid (EDTA), 1 mM dithiothreitol (DTT), 10% glycerol, and 1% Triton-X100}, and were then centrifuged at 100,000×g for 30 minutes, so as to collect the supernatant as a Ras protein fraction. HRasG12V in the supernatant was immobilized on a glutathione-agarose resin, and GST was then cleaved with PreScission Protease (GE Healthcare) for purification. The obtained HRasG12V was mixed with guanosine 5′-O-[gamma-thio]triphosphate trisodium salt (GTPTS) of 1000 times higher concentration at 30° C. for 1 hour, and thereafter, 20 mM MgCl2 (final concentration) was added to stop the reaction and collect the GTPgS-loaded HRasG12V as a product.
On the other hand, GST-c-Raf-1 RBD-expressing cells were subjected to ultrasonication in the same buffer as described above, and were then centrifuged at 100,000×g for 30 minutes, so as to collected the supernatant as a GST-c-Raf-1 RBD protein fraction.
The in vitro Ras-Raf binding inhibitory activity of the compound of the present invention was evaluated by an ELISA method described below.
GST-c-Raf-1 RBD diluted with a Ras-Raf binding buffer (50 mM Tris-HCl pH7.4, 150 mM NaCl, 5 mM MgCl2, 1 mM EDTA, and 1% Triton-X100) was added to each well of a glutathione-coated 96-well plate (Thermo Fisher Scientific.), and was incubated at 30° C. for 1 hour, to immobilize Raf on the well. The unbound free Raf was eliminated by washing the well with the Ras-Raf binding buffer three times. Subsequently, GTPTS-bound HRasG12V diluted with the Ras-Raf binding buffer and each compound solution (final DMSO concentration: 10%) were applied to each well, and the resulting mixture was then incubated at 30° C. for 1 hour, so that Ras and Raf were allowed to bind to each other. Thereafter, the plate was washed with the Ras-Raf binding buffer twice, and was then subjected to a blocking treatment at room temperature for 20 minutes, using TBS-Tween {10 mM Tris-HCl pH 7.4, 150 mM NaCl, and 0.05% (w/v) Tween-20}-5% (w/v) bovine serum albumin (BSA). After that, an anti-HRas antibody (C-20, Santa Cruz) or an anti-HRas antibody (259, Santa Cruz), which had been 1000 times diluted with TBS-Tween-5% BSA, was added to the reaction mixture, and incubated at room temperature for 1 hours. After the treatment with the primary antibody, the plate was washed with TBS-Tween-5% BSA three times, and a horseradish peroxidase-labeled secondary antibody against rabbit immunoglobulin G (GE Healthcare) of 1000 times diluted with TBS-Tween-5% BSA, was added to the plate, followed by incubation at room temperature for 1 hour. After the treatment with the secondary antibody, the plate was washed with TBS-Tween-5% BSA three times, and a substrate solution (TMB) was then added to the plate, followed by incubation at room temperature for 15 minutes for coloration. Finally, 2 M H2SO4 was added to stop color development (coloration reaction kit: Nacalai Tesque). The absorbance at 450 nm (OD450) was measured, so that the color intensity was quantified. Inhibition by the test compound was determined according to the following equation: […]
IC50 (*) in which the anti-HRas antibody (259, Santa Cruz) was used

[2] = tested on: acute lymphoblastic leukemia cells CCRF-CEM (K-RasG12D); assay: Cell growth inhibition, suspension cells CCRF-CEM; format: cell-based; conditions: Homo sapiens, 72 hours; for inhibition at 1 µM: read-out: CCRF-CEM (KRasG12D) % inhibition at 1 μM; for inhibition at 10 µM: read-out: CCRF-CEM (KRasG12D) % inhibition at 10 μM (**); for inhibition at 3.2 µM: read-out: CCRF-CEM (KRasG12D) % inhibition at 3.2 μM (***)
Description: (§1) The cell growth inhibitory activity of the compound of the present invention on human culture cells having active-type mutation in Ras was evaluated by the below-mentioned method using suspension cancer cells {acute lymphoblastic leukemia cells CCRF-CEM (K-RasG12D), promyelocytic leukemia cells HL60 (N-RasQ61L), acute lymphoblastic leukemia cells MOLT4 (N-RasG12C), and small cell lung cancer cells SHP77 (K-RasG12V)} and adherent cancer cells {large bowel cancer cells SW480 (K-RasG12V) and large bowel cancer cell SW620 (K-RasG12V)}.
(§2) (Case of suspension cells) The cells suspended in a medium containing 0.5% (v/v) fetal bovine serum (FBS) and each compound solution (final DMSO concentration: 1%) were seeded on a 96-well plate (2 to 4×10^4 cells/well), and the resulting mixture was then cultured at 37° C. in the presence of 5% CO2 for 72 hours.
(§3) Thereafter, the number of viable cells was measured using Cell Counting Reagent (Nacalai Tesque) in accordance with the manufacturer's instructions. Inhibition by the test compound was determined according to the following equation: […]

[3] = tested on: promyelocytic leukemia cells HL60 (N-RasQ61L); assay: Cell growth inhibition, suspension cells HL60; format: cell-based; conditions: Homo sapiens, HL-60, 72 hours; for inhibition at 10 µM: read-out: HL-60 (NRasQ61L) % inhibition at 10 μM (***); for inhibition at 1 µM: read-out: HL-60 (NRasQ61L) % inhibition at 1 μM; for inhibition at 3.2 µM: read-out: HL-60 (NRasQ61L) % inhibition at 3.2 μM (****)
Description: as §1, §2, §3

[4] = tested on: large bowel cancer cell SW620 (K-RasG12V); assay: Cell growth inhibition, adherent cells SW620; format: cell-based; conditions: Homo sapiens, SW-620; 3.2 μM (***), 72 hours; read-out: SW620 (KRasG12V) % inhibition at 3.2 μM (***)
Description: as §1
(Case of adherent cells) The cells suspended in a medium containing 10% FBS (1 to 2×10^4 cells/well) were seeded on a 96-well plate, and were then cultured at 37° C. in the presence of […]. Thereafter, the medium was exchanged with a medium containing […], to which each compound solution (final DMSO concentration: […]) had been added, and the cells were then cultured at 37° C. in the presence of […] for 72 hours.
as §3

[5] = anti-HRas antibody C-20, read-out: ELISA IC50 (μM): 1st Ab_C-20
[6] = anti-HRas antibody 259 (*), read-out: ELISA IC50 (μM): 1st Ab_259 (*)

Sequence of GTPγS-bound human HRasG12V / human c-Raf-1 Ras binding domain (RBD) (P01112 whole entry G12V, the tested form may be a part): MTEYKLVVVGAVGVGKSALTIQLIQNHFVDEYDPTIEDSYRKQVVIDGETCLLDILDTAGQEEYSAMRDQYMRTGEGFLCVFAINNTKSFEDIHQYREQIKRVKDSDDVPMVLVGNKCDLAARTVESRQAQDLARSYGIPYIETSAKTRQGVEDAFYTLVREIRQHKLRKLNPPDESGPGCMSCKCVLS

SMILES: CC(=O)N1/C(=C\c2ccc3cc(CO)ccc3n2)C(=O)c2ccccc21 [Example 33, (Z)-1-acetyl-2-((6-(hydroxymeth-yl)quinolin-2-yl)-methylene)indolin-3-one]
IC50 [1, 5]: 3.1 µM | inhibition at 1 µM [2]: 94%

SMILES: CC(=O)N1/C(=C\c2ccc3cc(CN4CCOCC4)ccc3n2)C(=O)c2ccccc21 [Example 35, (Z)-1-acetyl-2-((6-(morpholino-methyl)quinolin-2-yl)methylene)-indolin-3-one]
IC50 [1, 5]: 2.6 µM | inhibition at 1 µM [2]: 40%

SMILES: CC(=O)N1/C(=C/c2nc(C(=O)N3CCOCC3)cs2)C(=O)c2ccccc21 [Example 55, (E)-1-acetyl-2-((4-(morpholine-4-carbonyl)thiazol-2-yl)methylene)-indolin-3-one]
inhibition at 10 µM [3]: 96% | inhibition at 10 µM [2]: 78%

SMILES: CC(=O)N1/C(=C\c2ccc3cc(C(=O)N4CCS(=O)(=O)CC4)ccc3n2)C(=O)c2ccccc21 [Example 60, (Z)-1-acetyl-2-((6-(1,1-dioxido-thiomorpholine-4-carbonyl)quinolin-2-yl)methylene)-indolin-3-one]
IC50 [1, 5]: 6 µM | inhibition at 10 µM [2]: 99%

SMILES: CC(=O)N1/C(=C\c2ccc(OS(C)(=O)=O)cn2)C(=O)c2ccccc21 [Example 61, (Z)-6-((1-acetyl-3-oxoindolin-2-ylidene)methyl)-pyridin-3-yl methanesulfonate]
IC50 [1, 5]: 2.7 µM | inhibition at 1 µM [2]: 35%

SMILES: CC(=O)N1/C(=C\c2ccc3cc(CN(C)C4CCOCC4)ccc3n2)C(=O)c2ccccc21 [Example 71, (Z)-1-acetyl-2-((6-((methyl(tetra-hydro-2H-pyran-4-yl)amino)meth-yl)quinolin-2-yl)-methylene)indolin-3-one]
inhibition at 1 µM [3]: 41% | IC50 [1, 5]: 2.4 µM | inhibition at 10 µM [2]: 82%

SMILES: CC(=O)N1/C(=C\c2ccc3cc(CN4CCS(=O)(=O)CC4)ccc3n2)C(=O)c2ccccc21 [Example 107, (Z)-1-acetyl-2-((6-((1,1-dioxido-thiomorpholino)-methyl)quinolin-2-yl)methylene)-indolin-3-one]
inhibition at 10 µM [3]: 82% | IC50 [1, 5]: 1.7 µM | inhibition at 10 µM [2]: 81%

SMILES: CC(=O)N1/C(=C\c2ccc3cc(C(=O)N4CCC(N5CCOCC5)CC4)ccc3n2)C(=O)c2ccccc21 [Example 115, (Z)-1-acetyl-2-((6-(4-morpholino-piperidine-1-carbonyl)quinolin-2-yl)methylene)-indolin-3-one]
IC50 [1, 5]: 11 µM | inhibition at 10 µM [2]: 98%

SMILES: COCCN1CCN(C(=O)c2ccc3nc(/C=C4/C(=O)c5ccccc5N4C(C)=O)ccc3c2)CC1 [Example 116, (Z)-1-acetyl-2-((6-(4-(2-methoxy-ethyl)piperazine-1-carbonyl)quinolin-2-yl)methylene)-indolin-3-one]
inhibition at 10 µM [2]: 98%

SMILES: CC(=O)N1/C(=C\c2nc3ccc(C(=O)N4CCOCC4)cc3cc2-c2cnn(C)c2)C(=O)c2ccccc21 [Example 198, (Z)-1-acetyl-2-((3-(1-methyl-1H-pyrazol-4-yl)-6-(morpholine-4-carbonyl)quinolin-2-yl)methylene)-indolin-3-one]
inhibition at 3.2 µM [3]: 75.1% | inhibition at 3.2 µM [4]: 30.4% | inhibition at 3.2 µM [2]: 68.7%

Second part, led by results:

IC50 [1, 6]: 1.2 µM
SMILES: CC(=O)N1/C(=C\c2nc3cc(CNC4CCOCC4)ccc3s2)C(=O)c2ccccc21 [Example 132, (Z)-1-acetyl-2-((5-(((tetrahydro-2H-pyran-4-yl)-amino)methyl)-benzo[d]thiazol-2-yl)methylene)-indolin-3-one]
inhibition at 1 µM [3]: 42% | inhibition at 1 µM [2]: 38%

IC50 [1, 6]: 1.8 µM
SMILES: CC(=O)N1/C(=C\c2ccc3cc(CNC4CCS(=O)(=O)CC4)ccc3n2)C(=O)c2ccccc21 [Example 133]
inhibition at 10 µM [3]: 99% | inhibition at 10 µM [2]: 80%

inhibition at 1 µM [1]: 46.2% | IC50 [1, 5]: 1.2 µM
SMILES: CC(=O)N1/C(=C\c2cc(-c3ccccc3-c3ccccc3)c3cc(C(N)=O)ccc3n2)C(=O)c2ccccc21 [Example 141, (Z)-4-([1,1′-biphenyl]-2-yl)-2-((1-acetyl-3-oxo-indolin-2-ylidene)-methyl)quinoline-6-carboxamide]
inhibition at 3.2 µM [3]: 94.6% | inhibition at 3.2 µM [4]: 91.3%

inhibition at 1 µM [1]: 44.3% | IC50 [1, 5]: 0.6 µM
SMILES: CC(=O)N1/C(=C\c2cc(-c3ccccc3-c3ccccc3)c3cc(CNC4CCOCC4)ccc3n2)C(=O)c2ccccc21 [Example 143, (Z)-2-((4-([1,1′-biphenyl]-2-yl)-6-(((tetrahydro-2H-pyran-4-yl)amino)-methyl)quinolin-2-yl)methylene)-1-acetylindolin-3-one]
inhibition at 3.2 µM [3]: 97.2% | inhibition at 3.2 µM [4]: 79.3%

IC50 [1, 5]: 28.9 µM
SMILES: CC(=O)N1/C(=C\c2nc3ccc(-c4nnn[nH]4)cc3cc2-c2cccc3ccccc23)C(=O)c2ccccc21 [Example 214, (Z)-1-acetyl-2-((3-(naphthalen-1-yl)-6-(1H-tetrazol-5-yl)quinolin-2-yl)methylene)-indolin-3-one]
inhibition at 3.2 µM [3]: 36.7% | inhibition at 3.2 µM [4]: 92.2% | inhibition at 3.2 µM [2]: 96%
